Laboratory results from US20100021954A1, “High capacity nanoparticulate immobilization surface” (priority 2008, published 2010).

Biological target: T1, streptavidin (Streptomyces avidinii, UniProt P22629)
T1 construct: purchased Sigma-Aldrich S4762
Assay: fl-biotin binding on SA previously immobilized on a PGL coated Epic plate
Conditions: SA immobilized at 1.5 micrograms/mL with KH2PO4 on PGL Epic plate (PGL formulation of Example 4A)
Experimental: Materials: Fluorescein-Biotin from Sigma-Aldrich ref. B943 1; 0.01 M PBS (phosphate buffer); 0.0027 M potassium chloride; and 0.137 M sodium chloride pH 7.4; and dimethylsulfoxide (DMSO).
Preparation of 800 nM fl-biotin solution: 16 microliters of 500 μM fl-biotin solution in DMSO were added to 10 mL of PBS and mixed.
Preparation of PBS/DMSO solution: 16 microliters of DMSO were added to […] of PBS.
Each well of the Epic® plate from Examples 7A, 7B, 9, and 10 was rinsed three (3) times with water using an automatic pipettor. Then 75 microliters of the PBS/DMSO solution were added to each well and the alignment of the optical parts was performed. The plate was left undisturbed until reaching a stable baseline. After reaching a stable base line, 75 microliters of the fl-biotin solution were added to each well and mixed continuously for 2 mins using an automatic pipettor. In the course of the mixing, the binding curve was recorded in real time.
Materials: Unlabeled Streptavidine; KH2PO4 from Sigma-Aldrich ref. P5504; and PBS buffer. First, a […] KH2PO4 solution was prepared and its pH was adjusted to 8. Then 75 microliters of this solution were added to each well from a PGL Epic® coated plate prepared using PGL formulation of Example 4A. The alignment of the optical parts was performed and the plate was left undisturbed until a stable baseline was reached. […]

T1 sequence (P22629 25-183): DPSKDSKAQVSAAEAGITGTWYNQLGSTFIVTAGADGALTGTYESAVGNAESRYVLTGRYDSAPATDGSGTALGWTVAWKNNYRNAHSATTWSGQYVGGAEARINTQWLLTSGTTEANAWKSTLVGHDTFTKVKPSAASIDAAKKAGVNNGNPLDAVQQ

Question: For O=C(CCCCCNC(=O)CCCC[C@@H]1SC[C@@H]2NC(=O)N[C@@H]21)NCCCCCNC(=S)Nc1ccc2c(c1)C(=O)OC21c2ccc(O)cc2Oc2cc(O)ccc21 [fl-biotin, Fluorescein-Biotin], which “binding of fl-biotin on immobilized SA” value is on record?
Answer: easily observed
